Consider one compound from patent US12129255B2, “Pyrido [2,3-d]pyrimidine derivatives as inhibitors of human immunodeficiency virus replication” (VIIV HEALTHCARE UK (No. 5) LIMITED, priority 2019, dated 2024).

By clearance is commonly meant the rate of elimination divided by the concentration.

Data set [1] can be described thus: Metabolism in liver microsomes (human). It counts as in vitro ADME. Particulars: pH 7.4, 1 μM compound, 1 mg/mL microsomes, NADPH, read-out: Human liver microsome T1/2. As to the method: (§1) Liver microsomes from human, rat dog and monkey were thawed and diluted to a final concentration of 1 mg/mL in 100 mM potassium phosphate buffer (pH 7.4). Test compounds and controls were prepared at 100× final concentration of 1 μM in 1:1 acetonitrile:water (v/v) and aliquoted into microsomal mixture. The mixture was preincubated at 37° C. in a shaking water bath for 10 minutes. The incubations were performed in duplicate. Three controls were included in the incubations; warfarin, phenacetin, and verapamil. After the preincubation, the reaction was initiated with NADPH at a final concentration of 1 mM. At 0, 5, 15, 30, 45 and 60 minutes, 25 μL of sample was removed and quenched with 300 μL of acetonitrile containing internal standard (Telmisartan). The samples were vortexed for 5 minutes at 1200 rpm and then centrifuged at 4000 rpm for 10 min. A 100 μL aliquot of supernatant was diluted three-fold with water and injected on an Exion LC 4500 Triple Quad LC-MS/MS system. Results were reported as a percentage of parent remaining and was calculated from peak area ratios of test compound remaining after at each time point and compared to time zero incubation.
Background: Liver microsomes are a subcellular fraction often used to study metabolism.

Data set [2] can be described thus: Metabolism in liver microsomes (rat). Type of data set: in vitro ADME. Particulars: pH 7.4, 1 μM compound, 1 mg/mL microsomes, NADPH, read-out: Rat liver microsome T1/2. As to the method:
as §1

Data set [3] is described as follows: Metabolism in liver microsomes (dog). It counts as in vitro ADME. As to the method:
as §1

A short description of data set [4]: Metabolism in liver microsomes (monkey). It counts as in vitro ADME. As to the method:
as §1

The nature of data set [5]: Metabolism in human hepatocytes. It counts as in vitro ADME. As to the method: Cryopreserved hepatocytes in suspension from human, monkey, dog, rat and mouse were thawed and diluted in pre-warmed William's Medium E (pH 7.4). Aliquots of the hepatocyte suspension were added to test compound working solutions prepared in pre-warmed William's Medium E (pH 7.4) to achieve final concentrations of 0.5 μM in 0.5×10^6 cells per milliliter and ≤0.25% DMSO. These samples were incubated at 37° C. with 5% carbon dioxide and shaking at 200 rpm. The incubations were performed in singlet. […] Following completion of the experiment, samples were analyzed by LC-MS/MS. […] This percentage is calculated by dividing the peak area ratio of test compound following incubation (tx) by the peak area ratio of test compound at time-zero (t0) just prior to incubation. • The elimination rate constant (k, min^−1) is calculated using nonlinear regression fitting with the following equation: Ct=C0×e^(−k×t) • where: • C0 is the initial concentration represented as the peak area ratio (test compound peak area/internal standard peak area); • Ct is the concentration at t represented as the area ratio (test compound peak area/internal standard peak area); • e is the base of the natural logarithm • t is the time (min); • k is the elimination rate constant (min^−1). • The half-life (t1/2, min) is calculated using the following equation: […]

Data set [6] can be described thus: IV pharmacokinetics in mouse. Type of data set: in vivo, male CD1 mice. The settings on record: male, CD1, plasma, IV 1 mg/kg. As to the method:
(§2) PK was investigated in male CD1 mice, Wistar Han Rats, Cynomolgus monkeys, and Beagle Dogs. Two groups of animals (N=3 per group) received test compound either as an intravenous (IV) dose (1 mg/kg) or by oral gavage (5 mg/kg solution and suspension). Drug was formulated in 90% PEG 400, 10% ethanol for IV administration and in 90% PEG400, 5% ethanol for PO administration. Blood samples were collected at 0.167, 0.25, 0.5, 0.75, 1, 2, 3, 5, 7, 24, 48, 72 and 96 h post dose for IV; 0.25, 0.5, 0.75, 1, 2, 3, 5, 7, 24, 48, 72 and 96 h post dose for oral. Blood samples were collected into K3EDTA tubes and centrifuged at 1500 to 2000×g to obtain plasma. Plasma samples were stored at −20° C. until analysis by LC-MS/MS. All in vivo samples were injected on an Exion LC 4500 Triple Quad™ LC-MS/MS system where the column was maintained at 60° C. and the flow rate was 0.6 mL/min. All LC-MS/MS analysis parameters are captured electronically in the raw data files. Rat IV, Dog IV, Monkey IV, and Monkey PO PK samples were analyzed by General Analysis Method A. Mouse IV, Mouse PO, and Dog PO PK samples were analyzed by General Analysis Method B. Rat PO samples were analyzed by General Analysis Method C.
(§3) The PK parameters were obtained by non-compartmental analysis of plasma concentration vs time data (Phoenix WinNonlin v8.1). The peak concentration (Cmax) and time for Cmax (Tmax) were recorded directly from experimental observations. The area under the curve from time zero to the last sampling time [AUC0-T] and the area under the curve from time zero to infinity [AUCINF] were calculated using the linear-log trapezoidal rule. The total plasma clearance (CLTp), steady-state volume of distribution (VSS), apparent elimination half-life (T-HALF), and mean residence time (MRT) were estimated after IV administration. Estimations of AUC and T-HALF were made using a minimum of three timepoints with quantifiable concentrations. The absolute oral bioavailability (F) was estimated as the ratio of dose-normalized AUC values following oral and IV doses.

The nature of data set [7]: IV pharmacokinetics in rat. Type of data set: in vivo, Wistar Han Rats. The settings on record: Wistar Han, plasma, IV 1 mg/kg. As to the method: as §2, §3
Data set [8] can be described thus: IV pharmacokinetics in monkey. It counts as in vivo, Cynomolgus monkeys. As to the method: as §2, §3
Data set [9] can be described thus: IV pharmacokinetics in dog. Type of data set: in vivo, Beagle Dogs. As to the method:
as §2, §3

Where [10] appears, read: cynomolgus monkey, plasma, Monkey, IV 1 mg/kg.
The mark [11] stands for this setting: Beagle, plasma, Dog, IV 1 mg/kg.

SMILES strings stand for the structures. A value given as a limit tells only on which side of the number the result lay.

In the case of `Cn1nc(NS(C)(=O)=O)c2c(Cl)ccc(-n3c([C@H](Cc4cc(F)cc(F)c4)NC(=O)Cn4nc(C(F)F)c5c4C(F)(F)[C@@H]4C[C@H]54)nc4nc(OCCC(F)(F)F)ccc4c3=O)c21` (atropisomer, axis not shown; (P)) [Example 1, N—((S)-1-((3P)-3-(4-chloro-1-methyl-3-(methylsulfonamido)-1H-indazol-7-yl)-4-oxo-7-(3,3,3-trifluoropropoxy)-3,4-dihydropyrido[2,3-d]pyrimidin-2-yl)-2-(3,5-difluorophenyl)ethyl)-2-((3bS,4aR)-3-(difluoromethyl)-5,5-difluoro-3b,4,4a,5-tetrahydro-1H-cyclopropa[3,4]cyclopenta[1,2-c]pyrazol-1-yl)acetamide], the half-life at 1 μM was more than 120 min in data set [1]; more than 120 min in data set [2]; 105 min in [3] (dog, liver microsomes, pH 7.4, 1 μM compound, 1 mg/mL microsomes, NADPH, read-out: Dog liver microsome T1/2); more than 120 min in data set [4] (monkey, liver microsomes, pH 7.4, 1 μM compound, 1 mg/mL microsomes, NADPH, read-out: Monkey liver microsome T1/2). Further, in [3] (Example 1 versus Example 60.2), the “stability in dog liver microsomes relative to Example 60.2” value is on record as “six times more stable”. The “stability in monkey liver microsomes relative to Example 60.2” value in data set [4] (Example 1 versus Example 60.2) was “at least two times more stable”. In addition, the “intrinsic clearance in human hepatocytes” value in data set [5] (0.5 μM, 0.5×10^6 cells per milliliter) was 0.312 mL/min/g liver. In addition, the half-life at 0.5 μM in [5] (human, cryopreserved hepatocytes in suspension, pH 7.4, 0.5×10^6 cells per milliliter) was more than 480 min. The clearance came out at 0.5 mL/min/kg in data set [6], 2.64 mL/min/kg in data set [7], 8.5 mL/min/kg in data set [8] (setting [10]) and 1.68 mL/min/kg in data set [9] (setting [11]). In addition, the half-life in [6] was 456 min; in data set [7], 1040 min; in [8] (setting [10]) it was 180 min; in data set [9] (setting [11]) it was 516 min. The Vd amounted to 0.24 L/kg in data set [6] (read-out: Vss); 3.34 L/kg in [7] (read-out: Vss); 1.18 L/kg in data set [8] (cynomolgus monkey, plasma, Monkey, IV 1 mg/kg, read-out: Vss); 0.83 L/kg in data set [9] (Beagle, plasma, Dog, IV 1 mg/kg, read-out: Vss). In addition, the “clearance improved relative to Example 60.2” value in [8] (monkey, IV) is listed as 2.6 fold; in data set [9] (dog, IV) it was 4.9 fold. The “half-life in circulation higher than Example 60.2” value in data set [8] (monkey, IV) is on record as “two-fold”; in data set [9] (dog, IV), 3.4 fold.
